From article PMC3787887 (International Journal of Oncology, 2013)
Where “and” joins values, the source holds several entries; their conditions need not be identical. Equal values may be shown once. Blank lines part the entries; values can stand above or below the molecule they belong to.

Columns and labels:
A549 cells [1] = assay: Cellular uptake of PS, A549; format: cell-based, human; conditions: 1 h; for increase in the intracellular accumulation of PS by transporter inhibitor: co-incubation with 100 μM PS
SW480 cells = assay: Cellular uptake of PS, SW480; format: cell-based, human; conditions: 1 h; for enhancement of the cellular accumulation of PS by transporter inhibitor: co-incubation with 100 μM PS
[2] = tested on: human lung cancer xenografts; conditions: cited from earlier work
[3] = Pharmacokinetic study in mice, plasma PS metabolites by HPLC; format: in vivo
A549 cells [4] = assay: Cell growth inhibition; format: cell-based, human; conditions: PS 80 μM 24 h, curcumin 100 μM pretreatment
A549 cells [5] = assay: Apoptotic cell death analysis; format: cell-based, human; conditions: 20-h incubation
A549 xenografts = assay: A549 subcutaneous xenografts in nude mice; format: in vivo; conditions: for inhibition of human lung cancer xenografts (abstract, measure not named): PS 200 mg/kg, curcumin 500 mg/kg, oral gavage; for tumor volume at the end of the study: day 36, mean ± SEM; for reduction in tumor volume: end of study
[6] = Plasma and tumor drug levels at end of xenograft study; format: in vivo, nude mice
lung cancer = conditions: pre-clinical models of lung cancer; cited from earlier work
[7] = PS 200 mg/kg/d, curcumin 500 mg/kg/d
[8] = vs control, PS 200 mg/kg/d, curcumin 500 mg/kg/d
[9] = plasma metabolite after PS 200 mg/kg + curcumin 500 mg/kg in 10% Tween-80
[10] = plasma metabolite after PS 200 mg/kg + curcumin 500 mg/kg in micelles
[11] = plasma metabolite after single oral dose PS 200 mg/kg alone
[12] = curcumin 25 μM co-added with PS

- level in A549 xenografts, PS plus curcumin group vs PS alone group [6]: 3 fold higher
SMILES: CSc1ccc(/C=C2/C(C)=C(CC(=O)O)c3cc(F)ccc32)cc1 [Sulindac sulfide, sulindac sulfide]

- Cmax [3, 9]: 11.7 µM
- Tmax [3, 9]: 4 h
- Cmax [3, 10]: 7.7 µM
- Tmax [3, 10]: 4 h
- Cmax [3, 11]: 5.6 µM
- Tmax [3, 11]: 4 h
- level in A549 xenografts, PS plus curcumin group vs PS alone group [6]: 5 fold higher
SMILES: CC1=C(CC(=O)O)c2cc(F)ccc2/C1=C\c1ccc(S(C)(=O)=O)cc1 [Sulindac sulfone, sulindac sulfone]

- increase of Cmax vs PS alone ([3]; PS co-administered with curcumin in 10% Tween-80): 70%
- increase of Cmax vs PS alone ([3]; PS co-administered with curcumin in nanoparticles): 40%
- level in A549 xenografts, PS plus curcumin group vs PS alone group [6]: 1 fold higher
SMILES: CC1=C(CC(=O)O)c2cc(F)ccc2/C1=C\c1ccc([S+](C)[O-])cc1 (stereo not shown) [Sulindac, sulindac, reference compound]

- level in the plasma ([6]; curcumin and PS plus curcumin groups): minute levels
SMILES: COc1cc(/C=C/C(=O)CC(=O)/C=C/c2ccc(O[C@@H]3O[C@H](C(=O)O)[C@@H](O)[C@H](O)[C@H]3O)c(OC)c2)ccc1O [curcumin glucuronide]
- detection in A549 xenografts [6]: Neither curcumin, nor its glucuronide, was detected

The remaining lines, values behind:

SMILES: COc1ccc2c3c([nH]c2c1)[C@H](CC(C)C)N1C(=O)[C@H](CCC(=O)OC(C)(C)C)NC(=O)[C@@H]1C3 [Ko143]
- increase in the intracellular accumulation of PS by transporter inhibitor (A549 cells [1]): no effect

SMILES: CN(C)C(=O)CCSC(SCCC(=O)O)c1cccc(/C=C/c2ccc3ccc(Cl)cc3n2)c1 (stereo not shown) [MK571]
- enhancement of the cellular accumulation of PS by transporter inhibitor (SW480 cells): 30%
- increase in the intracellular accumulation of PS by transporter inhibitor (A549 cells [1]): 51%

SMILES: CCOP(=O)(OCC)OCCCCOC(=O)CC1=C(C)/C(=C/c2ccc([S+](C)[O-])cc2)c2ccc(F)cc21 (stereo not shown) [PS, Phospho-sulindac]
- efficacy as a single agent in the treatment of human lung cancer xenografts [2]: ineffective
- intact PS in plasma ([3]; any of the three treatments): not detected
- total plasma AUC0–24 h (sum of all metabolites) ([3]; single oral dose PS 200 mg/kg, curcumin 500 mg/kg): 211 µM·h
- reduction of cell viability (A549 cells [4]): 30%
- percentage of apoptotic cells (A549 cells [5]; PS 80 μM alone or with curcumin 100 μM): 3.9%
- percentage of apoptotic cells (A549 cells [5]; PS 100 μM alone or with curcumin 100 μM): 5.0%
- inhibition of human lung cancer xenografts (abstract, measure not named) (A549 xenografts): 25%
- adverse effects on the mice during the study (A549 xenografts; [7]): no apparent adverse effects
- body weight at sacrifice (A549 xenografts; [7]): 23 ± 1 g
- effect on the growth of A549 xenografts (in words) (A549 xenografts; [7]): did not significantly inhibit
- tumor volume at the end of the study (A549 xenografts; [7]): 419±36 mm^3
- reduction in tumor volume (A549 xenografts; [8]): 19.6% and 20%
- reduction in tumor weight (A549 xenografts; end-point, vs control, PS 200 mg/kg/d, curcumin 500 mg/kg/d): 27%

SMILES: COc1cc(/C=C/C(=O)CC(=O)/C=C/c2ccc(O)c(OC)c2)ccc1O [curcumin, Curcumin, reference compound]
- increase of uptake of PS (SW480 cells; curcumin 5 μM co-added with PS): 37%
- increase of uptake of PS (SW480 cells; [12]): 54%
- reduction of cell viability (A549 cells [4]): 4%
- increase of intracellular levels of PS (A549 cells [1]; curcumin 5 μM co-added with PS): 23%
- increase of intracellular levels of PS (A549 cells [1]; [12]): 60%
- inhibition of human lung cancer xenografts (abstract, measure not named) (A549 xenografts): no effect
- adverse effects on the mice during the study (A549 xenografts; [7]): no apparent adverse effects
- body weight at sacrifice (A549 xenografts; [7]): 23 ± 1 g
- effect on the growth of A549 xenografts (in words) (A549 xenografts; [7]): did not significantly inhibit
- tumor volume at the end of the study (A549 xenografts; [7]): 599±98 mm^3
- reduction in tumor volume (A549 xenografts; [8]): no inhibition
- efficacy as a single agent (lung cancer): < 30%

SMILES: COc1ccc(CCN(C)CCCC(C#N)(c2ccc(OC)c(OC)c2)C(C)C)cc1OC (stereo not shown) [verapamil]
- enhancement of the cellular accumulation of PS by transporter inhibitor (SW480 cells): 67%
- increase in the intracellular accumulation of PS by transporter inhibitor (A549 cells [1]): no effect
